From paper PMC11272598, “RG7774 (Vicasinabin), an orally bioavailable cannabinoid receptor 2 (CB2R) agonist, decreases retinal vascular permeability, leukocyte adhesion, and ocular inflammation in animal models” (Frontiers in Pharmacology, 2024) come the findings set out here.

SMILES strings stand for the structures.

Data set [1] is described as follows: GSH adduct formation in human liver microsomes. Format: in vitro ADME. The protocol: GSH adduct formation assays were conducted as previously described. Briefly, RG7774 was incubated with human liver microsomes to form reactive metabolites, and glutathione was added as a nucleophile to convert the reactive metabolites into stable conjugates that could be analyzed by MS.
On the technique in general: Liver microsomes are a subcellular fraction often used to study metabolism.

Data set [2] has as its system LPS-induced vascular leakage. Put plainly: LPS-induced vascular permeability in mice with EIU (fluorophotometry). Type of data set: in vivo, C57Bl6/J mice. As to the method:
Twenty-four female C57Bl6/J mice, 10 weeks old and weighing 18–20 g (Charles River, Sulzfeld, Germany) were housed in individually ventilated GM500 cages (Tecniplast, Pontremoli, Italy) with a maximum density of n = 4 mice with the same litter and sex. The room was kept at 20°C–24°C with 50%–60% humidity and a 12/12 h light-dark cycle. Animals were held on a standard mouse diet with ad libitum access to food and water.
Mice were anesthetized with isoflurane 3% in 100% O2, a drop of 1% Novesin 0.4% (Omnivision, Pucheim, Germany) and a drop of Tropicamide 1% w/v (Bausch + Lomb Incorporated, Kingston, United Kingdom). Eyes were subsequently cleaned with povidone iodine 5% Ophthalmic Prep Solution (Alcon, Geneva, Switzerland) and were immediately pre-punctured with a 30-gauge needle. Both eyes were injected with a single 1 µL IVT injection of 1 ng LPS (Sigma-Aldrich, St. Louis, MO, United States) or a single injection of Dulbecco’s phosphate buffered saline (PBS) (Fisher Scientific, Schwerte, Germany) (vehicle control) using a Nanofil syringe connected to a 34-gauge needle.
Vehicle solution [w/w] was prepared using 0.1% hydroxyethyl cellulose, 1.0% polysorbate 80, 0.18% methylparaben, and 0.02% propylparaben in 10 mM citrate (pH 6.0). RG7774 (0.6 and 2.0 mg/mL) was added to freshly prepared vehicle, stirred on a magnetic stirrer for at least 15 min, and a volume of 5 mL/kg was administered directly to the stomach of each EIU mouse using a 1 mL syringe with an oral gavage needle. Gavage was performed twice daily (6 mg/kg/day BID and 20 mg/kg/day BID) on the evening and morning prior to LPS injection, on the evening after LPS injection, and on the morning before fluorophotometry.
Mice were anesthetized 24 h after receiving LPS or vehicle control using subcutaneous (SC) injections of fentanyl 0.05 mg/kg, medetomidine 0.5 mg/kg, and midazolam 5 mg/kg. […] Fundus infrared and fundus fluorescein angiography (FFA) images of both eyes were recorded 30 min later using optical coherence tomography (OCT)/FFA (Spectralis HRA-OCT, Heidelberg Engineering, Heidelberg, Germany) with a 55° lens focused on the optic nerve with the optic disc in the center of the image to obtain sharp images of the fundus. […] The supernatant (10 µL) was diluted in 990 µL PBS in a microcuvette (PS Micro Photometer Cuvette 2 mL, 10 mm × 10 mm × 45 mm; LP Italiana, Milan, Italy) and samples were analyzed in duplicate using the FM-2 Fluorotron (450–490 nm excitation; 520–600 nm emission detection). […]
To quantify fluorotron measurements, raw files were generated, exported as txt. files, and plotted using Microsoft Excel. The average area under the curve (AUC) was calculated for 5 steps in each of the regions of the scans corresponding to retina, vitreous, and anterior chamber peaks. […]

Turning to `Cn1nnnc1Cn1nnc2c(N3CC[C@H](O)C3)nc(C(C)(C)C)nc21` [RG7774, (S)-1-(5-tert-butyl-3-[(1-methyl-1H-tetrazol-5-yl)methyl]-3H-[1,2,3]triazolo[4,5-d]pyrimidin-7-yl)pyrrolidin-3-ol], in data set [1], the “GSH (human liver microsomes) adducts” value is given as “none detected”. In addition, the “reduction of LPS-induced vascular leakage in the retina versus vehicle control” value in data set [2] (6 mg/kg/day oral BID) is 102%; in data set [2] (20 mg/kg/day oral BID), 106%. Besides, the entries for the “reduction of LPS-induced vascular leakage in the vitreous” value in data set [2] (6 mg/kg/day oral BID) and in data set [2] (20 mg/kg/day oral BID) were 74% and 76%, respectively.
